# ChEMBL document CHEMBL1201862, “PubChem BioAssay data set” (2004)
# The source made the active and inactive calls.
# Tests used:
# [1] = biological target: ORF 73 (Human herpesvirus 8, UniProt O40947); test: KSHV LANA DNA-binding disruption – biochemical, fluorescence polarization, cherry-picked samples, dose response (AID 504725); design: species or system Human gammaherpesvirus 8;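 note: fluorescence polarization of a labeled DNA duplex reporting LANA DNA binding; potency is for inhibitors that block LANA binding to the DNA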
# [2] = biological target: Troponin, cardiac muscle (Homo sapiens, UniProt P19429+P45379+P63316); test: Fluorescence-based biochemical high throughput dose response assay for activators of the calcium sensitivity of cardiac Regulated Thin Filaments (RTF). [Related pubchem assays (depositor defined):AID493008, AID493018, AID504382, AID504383]; assay type: protein-complex assay
# [3] = biological target: T1, Endoribonuclease toxin MazF (Escherichia coli K-12, UniProt P0AE70); test: activation of MazEF endoribonuclease cleavage – biochemical, fluorescence, single-stranded RNA substrate, uHTS hits, dose response (AID 588481); assay type: functional
# [4] = biological target: UDP-galactopyranose mutase (Mycobacterium tuberculosis, UniProt P9WIQ1); test: Inhibitors of Mycobacterium tuberculosis UDP-galactopyranose mutase (UGM) enzyme Measured in Biochemical System Using Plate Reader - 2105-02_Inhibitor_Dose_CherryPick_Activity. [Related pubchem assays (depositor defined):AID504439]
# [5] = biological target: Keap1/Nrf2 (Homo sapiens, UniProt Q14145); test: disruptors of Keap1 binding to Nrf2 peptide – biochemical, fluorescence polarization, cherry-picked samples, dose response (AID 588683)
# [6] = biological target: T1, Endoribonuclease toxin MazF; test: substrate-only fluorescence increase artefacts – biochemical, single-stranded RNase substrate, counter-screen for MazEF activator project, dose response (AID 588502); assay type: functional
# [7] = Luminescence-based cell-based high throughput dose response assay to identify activators of the DAF-12 from the parasite S. stercoralis (ssDAF-12).; assay type: functional
# [8] = biological target: T2, Oxysterols receptor LXR-beta (Homo sapiens, UniProt P55055); test: LXR agonists, Gal4 luciferase reporter, dose response, counter-screen for ssDAF-12 agonist project, cell-based, luminescence, HEK293, S. stercoralis campaign (AID 720737); assay type: functional; conditions: read-out: IC50 (the source's name)
# T2 sequence (P55055 whole entry): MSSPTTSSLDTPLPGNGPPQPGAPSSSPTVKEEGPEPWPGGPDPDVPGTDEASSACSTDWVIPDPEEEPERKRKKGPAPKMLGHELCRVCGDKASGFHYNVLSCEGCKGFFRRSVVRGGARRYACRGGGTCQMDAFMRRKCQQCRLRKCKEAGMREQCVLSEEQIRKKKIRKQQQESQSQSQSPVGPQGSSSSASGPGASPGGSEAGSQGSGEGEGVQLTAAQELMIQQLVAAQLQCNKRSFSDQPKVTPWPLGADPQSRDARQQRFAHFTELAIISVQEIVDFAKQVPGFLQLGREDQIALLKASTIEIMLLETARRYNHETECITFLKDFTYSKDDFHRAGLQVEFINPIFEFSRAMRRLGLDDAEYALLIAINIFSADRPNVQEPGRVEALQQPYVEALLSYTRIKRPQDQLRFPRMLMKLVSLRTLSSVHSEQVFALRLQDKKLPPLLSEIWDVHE
# [9] = biological target: Dual specificity protein kinase CLK1 (Homo sapiens, UniProt P49759); test: inhibition of human CLK1 activity – biochemical, cherry-picked samples, selectivity assay for Dyrk1A inhibitor project, dose response (AID 588811)
# [10] = luciferase reporter signal suppression in cells – H4 neuroglioma cells, luminescence, dose response (AID 1990); assay type: functional, cell-based
# [11] = tested on: BJ; test: BJ-TERT fibroblast viability loss – cell-based, RAS-independent, luminescence, dose response (AID 1933); assay type: functional; conditions: Homo sapiens
# [12] = Luminescence Cell-Based Dose Response HTS to Identify Inhibitors of 5'UTR Stem-Loop Driven Prion Protein mRNA Translation in H4 Neuroglioblastoma Cells. [Related pubchem assays: 1827 (Project Summary), 1813 (Primary HTS)]; assay type: functional
# [13] = alpha-synuclein stem-loop luciferase translation blockers – H4 neuroglioma cells, luminescence, confirmation (AID 1988); assay type: functional, cell-based
# [14] = tested on: BJ; test: cells; assay type: functional, cell-based; conditions: Homo sapiens
# [15] = tested on: BJ; test: BJ-TERT-LT-ST fibroblast viability loss – cell-based, RAS-independent, luminescence, dose response (AID 1935); assay type: functional; conditions: Homo sapiens;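 note: BJ fibroblasts immortalized with TERT plus LT and ST oncogenes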
# [16] = DRD fibroblast viability loss – cell-based, non-viral oncogenic, luminescence, dose response (AID 1934); assay type: functional; conditions: Homo sapiens
# [17] = Luminescence Cell-Based Dose Retest to Confirm Inhibitors of Cancer Stem Cells. [Related pubchem assays (depositor defined):AID2717, AID2721]; assay type: functional; conditions: Homo sapiens
# [18] = biological target: T3, Microphthalmia-associated transcription factor (Homo sapiens, UniProt O75030); test: reducers of TRPM1 reporter luminescence, concentration series – cell-based, SK-MEL-5, cherry-picked, set 3, MITF inhibitor project, dose response (AID 493073); assay type: functional;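 note: SK-MEL-5 melanoma cells with luciferase driven by the MITF target TRPM1 promoter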
# T3 sequence (O75030 whole entry): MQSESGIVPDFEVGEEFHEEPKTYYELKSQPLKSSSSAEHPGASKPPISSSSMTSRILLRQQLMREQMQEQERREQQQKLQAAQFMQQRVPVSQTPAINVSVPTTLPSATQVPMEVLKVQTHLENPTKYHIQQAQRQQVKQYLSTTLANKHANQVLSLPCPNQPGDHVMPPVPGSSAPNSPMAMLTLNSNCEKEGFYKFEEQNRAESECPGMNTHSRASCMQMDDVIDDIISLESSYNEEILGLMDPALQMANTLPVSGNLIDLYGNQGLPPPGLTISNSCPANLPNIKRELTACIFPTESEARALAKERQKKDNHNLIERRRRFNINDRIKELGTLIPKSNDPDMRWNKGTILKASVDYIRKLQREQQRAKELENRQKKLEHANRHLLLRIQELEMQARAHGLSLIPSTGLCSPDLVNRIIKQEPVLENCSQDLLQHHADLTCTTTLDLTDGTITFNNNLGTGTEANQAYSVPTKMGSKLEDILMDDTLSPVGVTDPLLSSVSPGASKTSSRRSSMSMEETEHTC
# [19] = tested on: A-375; test: proliferation inhibition in MITF-low A375 cells – cell-based, cherry-pick samples, set 2, counter-screen for MITF modulator project, dose response (AID 540335); assay type: functional; conditions: Homo sapiens
# [20] = biological target: Melanocortin receptor 4 (Homo sapiens, UniProt P32245); test: inhibitors of MC4R cAMP signaling – cell-based, TR-FRET, biased antagonists, dose response (AID 602298); assay type: functional;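 note: antagonist potency against agonist-stimulated cAMP production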
# [21] = cAMP pathway inhibition in counterscreen cell line – TR-FRET cAMP detection, counter-screen for MC4R biased antagonist project, dose response (AID 602305); assay type: functional, cell-based;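 note: U2OS cells stimulated with forskolin near its EC80 as the cAMP inducer; potency is for inhibition of forskolin-stimulated cAMP signaling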
# [22] = biological target: Phospholipase D1 (Homo sapiens, UniProt Q13393); test: cellular phospholipase D1 inhibition IC50 – cell-based, dose response (AID 602151); assay type: functional;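 note: cellular PLD1 assay in Calu-1 cells stimulated with PMA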
# [23] = tested on: Jurkat; test: SAR Analysis of small molecule inhibitors of […] specific antigen receptor-induced NF-kB activation in a Jurkat cell line using a luminescence assay - Set 3. [Related pubchem assays (depositor defined):AID435022, AID435025, AID465]; assay type: functional, cell-based; conditions: Homo sapiens
# [24] = tested on: HEK293; test: SAR Analysis of small molecule inhibitors of B-cell specific antigen receptor-induced NF-kB activation in a HEK-293T cell line using a luminescence assay - Set 2. [Related pubchem assays (depositor defined):AID435022, AID435025, AID489021]; assay type: functional, cell-based; conditions: Homo sapiens
# [25] = tested on: HEK293; test: HEK293T cell viability loss, resazurin readout – resazurin fluorescence, cytotoxicity control for NF-kB activator project, SAR follow-up (AID 493251); assay type: functional, cell-based; conditions: Homo sapiens
# [26] = biological target: T4, Short transient receptor potential channel 4 (Mus musculus, UniProt Q9QUQ5); test: SAR Analysis for the identification of selective inhibits of the transient receptor potential cation channel C4 (TRPC4): Automated Electrophysiology. [Related pubchem assays (depositor defined):AID2256]; assay type: functional
# T4 sequence (Q9QUQ5 whole entry): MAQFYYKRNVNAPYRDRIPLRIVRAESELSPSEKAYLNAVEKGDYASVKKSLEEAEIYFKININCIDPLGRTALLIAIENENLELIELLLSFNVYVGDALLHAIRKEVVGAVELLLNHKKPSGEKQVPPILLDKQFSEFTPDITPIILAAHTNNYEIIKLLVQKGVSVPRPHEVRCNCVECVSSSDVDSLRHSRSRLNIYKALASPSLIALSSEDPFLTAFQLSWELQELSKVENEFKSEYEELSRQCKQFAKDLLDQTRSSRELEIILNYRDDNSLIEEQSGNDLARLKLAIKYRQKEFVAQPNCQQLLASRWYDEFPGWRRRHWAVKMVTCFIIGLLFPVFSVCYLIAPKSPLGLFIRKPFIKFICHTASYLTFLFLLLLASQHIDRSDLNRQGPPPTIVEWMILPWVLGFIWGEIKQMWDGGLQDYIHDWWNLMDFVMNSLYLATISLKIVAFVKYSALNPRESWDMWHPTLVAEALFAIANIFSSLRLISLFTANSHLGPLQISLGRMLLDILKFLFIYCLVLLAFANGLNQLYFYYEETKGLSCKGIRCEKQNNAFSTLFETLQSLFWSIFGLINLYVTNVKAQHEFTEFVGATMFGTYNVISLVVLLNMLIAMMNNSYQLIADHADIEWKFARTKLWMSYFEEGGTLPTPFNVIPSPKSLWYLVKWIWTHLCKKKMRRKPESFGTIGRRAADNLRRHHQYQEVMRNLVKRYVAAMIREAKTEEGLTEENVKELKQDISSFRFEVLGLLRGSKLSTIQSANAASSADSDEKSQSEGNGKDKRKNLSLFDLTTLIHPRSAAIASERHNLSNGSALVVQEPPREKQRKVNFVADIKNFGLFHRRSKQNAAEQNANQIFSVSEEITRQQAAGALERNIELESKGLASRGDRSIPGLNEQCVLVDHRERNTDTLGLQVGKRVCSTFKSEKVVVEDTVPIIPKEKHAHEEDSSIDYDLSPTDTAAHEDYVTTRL
# [27] = biological target: Short transient receptor potential channel 6 (Mus musculus, UniProt Q61143); test: mouse TRPC6 channel blockers, concentration series – HEK293 cells, membrane potential dye, IC50, selectivity assay for selective TRPC4 inhibitor project, dose response (AID 492987); assay type: functional, cell-based
# [28] = biological target: T4, Short transient receptor potential channel 4; test: potency of mouse TRPC4 calcium flux blockers – cell-based, HEK293 TRPC4/mu-opioid, DAMGO stimulus, Fluo-4, dose response (AID 492994); assay type: functional
# T1 sequence (P0AE70 whole entry): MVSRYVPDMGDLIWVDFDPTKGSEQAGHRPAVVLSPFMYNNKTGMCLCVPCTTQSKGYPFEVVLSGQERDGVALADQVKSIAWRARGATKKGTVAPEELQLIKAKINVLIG
# Keap1/Nrf2, sequence (Q16236 whole entry): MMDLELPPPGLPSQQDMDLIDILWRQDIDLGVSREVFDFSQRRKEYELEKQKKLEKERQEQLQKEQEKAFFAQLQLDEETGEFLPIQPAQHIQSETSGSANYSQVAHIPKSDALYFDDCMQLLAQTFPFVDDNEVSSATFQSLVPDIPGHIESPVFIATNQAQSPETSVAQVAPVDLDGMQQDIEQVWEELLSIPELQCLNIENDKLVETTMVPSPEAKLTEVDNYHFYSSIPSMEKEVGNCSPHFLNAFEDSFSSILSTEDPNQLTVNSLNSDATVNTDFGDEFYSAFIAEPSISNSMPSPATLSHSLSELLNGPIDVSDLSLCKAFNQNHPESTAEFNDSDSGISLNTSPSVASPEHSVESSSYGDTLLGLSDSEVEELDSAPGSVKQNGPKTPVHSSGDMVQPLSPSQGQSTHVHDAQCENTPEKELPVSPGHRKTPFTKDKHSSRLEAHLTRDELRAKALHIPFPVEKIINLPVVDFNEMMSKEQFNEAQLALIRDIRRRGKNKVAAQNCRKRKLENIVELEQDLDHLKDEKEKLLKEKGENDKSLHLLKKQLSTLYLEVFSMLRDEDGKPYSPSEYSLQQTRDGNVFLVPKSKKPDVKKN
# Keap1/Nrf2, sequence (Q14145 whole entry): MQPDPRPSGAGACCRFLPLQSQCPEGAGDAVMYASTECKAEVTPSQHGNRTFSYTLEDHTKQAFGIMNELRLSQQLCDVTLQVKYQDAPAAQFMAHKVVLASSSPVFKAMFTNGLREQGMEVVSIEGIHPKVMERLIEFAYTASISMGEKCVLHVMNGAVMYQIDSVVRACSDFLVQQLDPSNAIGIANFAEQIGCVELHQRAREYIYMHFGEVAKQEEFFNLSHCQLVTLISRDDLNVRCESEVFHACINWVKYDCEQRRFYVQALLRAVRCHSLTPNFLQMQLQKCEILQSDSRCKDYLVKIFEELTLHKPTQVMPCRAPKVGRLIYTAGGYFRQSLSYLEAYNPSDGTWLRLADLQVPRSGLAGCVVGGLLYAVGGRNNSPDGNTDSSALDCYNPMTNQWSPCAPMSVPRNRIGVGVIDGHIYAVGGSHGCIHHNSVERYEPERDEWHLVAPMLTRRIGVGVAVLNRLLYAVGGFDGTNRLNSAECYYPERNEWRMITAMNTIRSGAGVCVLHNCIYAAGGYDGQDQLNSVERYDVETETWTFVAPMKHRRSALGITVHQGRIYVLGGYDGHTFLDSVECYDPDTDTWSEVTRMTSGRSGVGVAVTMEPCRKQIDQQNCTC
# ORF 73, sequence (O40947 whole entry): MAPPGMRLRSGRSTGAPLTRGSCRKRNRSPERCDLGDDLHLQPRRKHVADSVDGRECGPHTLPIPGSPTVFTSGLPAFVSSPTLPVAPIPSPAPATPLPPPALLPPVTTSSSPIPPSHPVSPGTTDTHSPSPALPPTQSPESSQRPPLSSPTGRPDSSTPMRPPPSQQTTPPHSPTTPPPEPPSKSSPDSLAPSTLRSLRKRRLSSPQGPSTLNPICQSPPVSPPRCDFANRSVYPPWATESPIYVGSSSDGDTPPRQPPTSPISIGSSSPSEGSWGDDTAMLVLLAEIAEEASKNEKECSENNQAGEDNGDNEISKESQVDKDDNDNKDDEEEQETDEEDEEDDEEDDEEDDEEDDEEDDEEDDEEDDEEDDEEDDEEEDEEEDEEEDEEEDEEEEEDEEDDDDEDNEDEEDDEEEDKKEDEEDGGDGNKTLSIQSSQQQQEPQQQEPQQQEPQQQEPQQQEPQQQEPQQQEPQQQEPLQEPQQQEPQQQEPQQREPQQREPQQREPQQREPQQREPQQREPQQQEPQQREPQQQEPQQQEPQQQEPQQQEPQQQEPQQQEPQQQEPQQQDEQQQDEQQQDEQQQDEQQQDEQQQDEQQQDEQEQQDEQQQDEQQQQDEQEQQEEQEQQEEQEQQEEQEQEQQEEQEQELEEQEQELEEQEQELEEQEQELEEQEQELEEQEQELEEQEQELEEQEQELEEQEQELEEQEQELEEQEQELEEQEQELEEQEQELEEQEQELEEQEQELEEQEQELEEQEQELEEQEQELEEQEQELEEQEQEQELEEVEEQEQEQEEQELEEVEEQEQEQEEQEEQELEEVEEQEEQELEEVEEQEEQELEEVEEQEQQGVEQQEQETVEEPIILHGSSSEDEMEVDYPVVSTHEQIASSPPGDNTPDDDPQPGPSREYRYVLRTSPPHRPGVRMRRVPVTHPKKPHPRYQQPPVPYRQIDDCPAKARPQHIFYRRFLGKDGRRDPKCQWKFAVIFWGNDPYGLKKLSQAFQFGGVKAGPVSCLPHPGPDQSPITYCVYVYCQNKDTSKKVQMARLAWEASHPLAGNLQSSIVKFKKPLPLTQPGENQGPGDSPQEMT
# UDP-galactopyranose mutase, sequence (P9WIQ1 whole entry): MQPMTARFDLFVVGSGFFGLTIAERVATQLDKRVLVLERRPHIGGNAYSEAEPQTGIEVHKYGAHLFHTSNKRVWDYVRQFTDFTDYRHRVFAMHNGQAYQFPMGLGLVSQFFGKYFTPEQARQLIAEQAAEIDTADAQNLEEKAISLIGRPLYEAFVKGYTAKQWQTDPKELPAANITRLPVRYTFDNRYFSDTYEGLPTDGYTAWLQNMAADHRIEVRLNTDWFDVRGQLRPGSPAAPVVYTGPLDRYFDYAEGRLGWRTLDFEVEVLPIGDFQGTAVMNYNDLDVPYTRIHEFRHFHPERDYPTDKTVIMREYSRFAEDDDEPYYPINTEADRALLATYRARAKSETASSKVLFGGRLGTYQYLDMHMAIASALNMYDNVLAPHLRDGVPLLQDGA
# Short transient receptor potential channel 6, sequence (Q61143 whole entry): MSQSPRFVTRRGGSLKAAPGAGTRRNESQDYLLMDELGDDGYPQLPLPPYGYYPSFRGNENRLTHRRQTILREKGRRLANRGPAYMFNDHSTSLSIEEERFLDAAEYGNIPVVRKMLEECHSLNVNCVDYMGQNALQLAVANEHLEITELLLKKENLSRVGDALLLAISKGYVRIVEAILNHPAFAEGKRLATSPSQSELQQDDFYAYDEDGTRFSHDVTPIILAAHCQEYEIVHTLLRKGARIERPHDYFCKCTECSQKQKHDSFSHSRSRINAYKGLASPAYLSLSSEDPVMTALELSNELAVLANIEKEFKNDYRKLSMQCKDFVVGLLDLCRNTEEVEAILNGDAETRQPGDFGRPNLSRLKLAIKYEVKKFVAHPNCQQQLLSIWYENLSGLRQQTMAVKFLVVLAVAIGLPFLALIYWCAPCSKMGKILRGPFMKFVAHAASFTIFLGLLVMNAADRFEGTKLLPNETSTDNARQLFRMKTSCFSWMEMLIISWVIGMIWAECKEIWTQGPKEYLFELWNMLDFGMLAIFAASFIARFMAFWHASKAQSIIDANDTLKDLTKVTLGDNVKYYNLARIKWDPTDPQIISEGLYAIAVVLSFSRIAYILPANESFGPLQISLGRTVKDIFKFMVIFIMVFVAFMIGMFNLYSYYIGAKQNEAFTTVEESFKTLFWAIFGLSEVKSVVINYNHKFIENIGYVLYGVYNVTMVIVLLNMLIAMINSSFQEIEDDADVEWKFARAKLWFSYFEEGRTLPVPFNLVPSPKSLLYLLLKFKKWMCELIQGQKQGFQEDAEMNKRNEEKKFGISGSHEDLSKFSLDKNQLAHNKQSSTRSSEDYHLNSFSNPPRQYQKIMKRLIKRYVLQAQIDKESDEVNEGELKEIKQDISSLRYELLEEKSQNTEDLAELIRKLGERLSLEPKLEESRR
# Phospholipase D1, sequence (Q13393 whole entry): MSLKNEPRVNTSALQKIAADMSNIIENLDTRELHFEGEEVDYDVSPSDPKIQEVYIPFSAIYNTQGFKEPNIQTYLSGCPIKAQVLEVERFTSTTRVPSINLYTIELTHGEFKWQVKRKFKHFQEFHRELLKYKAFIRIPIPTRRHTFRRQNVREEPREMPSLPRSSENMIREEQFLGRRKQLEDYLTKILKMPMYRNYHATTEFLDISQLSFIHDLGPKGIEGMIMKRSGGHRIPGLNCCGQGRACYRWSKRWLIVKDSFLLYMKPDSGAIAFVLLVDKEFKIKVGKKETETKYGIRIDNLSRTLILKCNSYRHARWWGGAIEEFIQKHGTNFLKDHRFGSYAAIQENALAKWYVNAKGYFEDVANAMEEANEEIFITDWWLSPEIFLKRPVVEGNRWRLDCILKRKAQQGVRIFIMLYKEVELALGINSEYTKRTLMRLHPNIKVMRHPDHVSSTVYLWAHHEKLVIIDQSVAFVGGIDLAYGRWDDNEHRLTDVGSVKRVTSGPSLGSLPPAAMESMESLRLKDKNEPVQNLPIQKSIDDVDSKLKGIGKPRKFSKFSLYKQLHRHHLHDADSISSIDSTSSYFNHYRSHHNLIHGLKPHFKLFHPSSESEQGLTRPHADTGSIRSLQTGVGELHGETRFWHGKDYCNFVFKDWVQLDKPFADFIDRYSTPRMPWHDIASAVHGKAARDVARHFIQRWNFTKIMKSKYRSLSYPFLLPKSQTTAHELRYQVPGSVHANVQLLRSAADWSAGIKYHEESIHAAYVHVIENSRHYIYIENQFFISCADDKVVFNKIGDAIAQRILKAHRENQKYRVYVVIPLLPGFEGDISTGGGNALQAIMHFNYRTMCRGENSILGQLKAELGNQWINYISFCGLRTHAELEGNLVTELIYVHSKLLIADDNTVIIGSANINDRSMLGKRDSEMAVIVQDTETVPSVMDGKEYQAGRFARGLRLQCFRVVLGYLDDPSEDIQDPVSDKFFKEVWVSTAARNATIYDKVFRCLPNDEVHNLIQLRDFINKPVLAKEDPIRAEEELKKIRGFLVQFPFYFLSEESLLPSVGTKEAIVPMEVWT
smiles,measurement,setting,value
CN(N=Nc1ccc([N+](=O)[O-])cc1)c1ccccc1,AC50,[1],11.4 µM (active)
same,EC50,[2],5.61 µM (active)
same,EC50,[3],> 99 µM (inactive)
same,AC50,[4],28.7 µM (active)
same,AC50,[5],21.8 µM (active)
same,EC50,[6],31 µM (inactive)
same,IC50,[7],> 67.6 µM (inactive)
same,EC50,[8],> 67.6 µM (inactive)
Cc1nc(CN(C)c2ncnc3ccc(-c4ccc5c(c4)OCO5)cc23)cs1,AC50,[9],< 1.95 nM (active)
O=C(/C=C/c1ccc(Cl)cc1)c1ccc([N+](=O)[O-])o1,EC50,[10],8.88 µM (active)
same,EC50,[11],> 150 µM (not active)
same,EC50,[12],> 60 µM (not active)
same,EC50,[13],> 120 µM (not active)
same,EC50,[14],> 150 µM (inconclusive)
same,EC50,[15],> 150 µM (inconclusive)
same,EC50,[16],1.13 µM (inconclusive)
same,AC50,[17],1.21 µM (active)
same,AC50,[18],5.32 µM (active)
same,AC50,[19],29.9 µM (active)
same,IC50,[20],> 64.6 µM (inactive)
same,IC50,[21],> 64.6 µM (inactive)
O=C(NCCN1CC=C(n2c(=O)[nH]c3ccccc32)CC1)C1CC1c1ccccc1 (stereo not drawn),IC50,[22],200 nM (active)
CC(C)NC(=O)CCc1nc(-c2ccc(C(C)(C)C)cc2)no1,IC50,[23],29.2 µM (inactive)
same,IC50,[24],13.5 µM (active)
same,IC50,[25],> 80 µM (inactive)
Cc1ccc2nc(N3CCCC3)cc(C)c2c1,IC50,[26],3.71 µM (active)
same,IC50,[27],2.03 µM (active)
same,IC50,[28],2.04 µM (active)
